Measurements published in the supplement of paper PMC10307832.

How the values were obtained:
Experiment in all cases: relative viability (nuclei count vs DMSO), 5 days (fraction); higher = more cells survive
Everolimus + Palbociclib = compound: CO[C@H]1C[C@@H]2CC[C@@H](C)[C@@](O)(O2)C(=O)C(=O)N2CCCC[C@H]2C(=O)O[C@H]([C@H](C)C[C@@H]2CC[C@@H](OCCO)[C@H](OC)C2)CC(=O)[C@H](C)/C=C(\C)[C@@H](O)[C@@H](OC)C(=O)[C@H](C)C[C@H](C)/C=C/C=C/C=C/1C [Everolimus] + CC(=O)c1c(C)c2cnc(Nc3ccc(N4CCNCC4)cn3)nc2n(C2CCCC2)c1=O [Palbociclib] (partner 0.5 µM)
Outline: (§1)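 Lung cancer cell lines were seeded in 1536-well plates and dosed by pin tool the next day, with either a single drug or a fixed anchor-drug dose combined with five library-drug doses (not always all listed) spaced in √10 steps. Five days later, one step fixed the cells and stained their nuclei (final 0.05% Triton X-100, 1% formaldehyde, 1 ug/ml Hoechst), and nuclei were counted on 4× images. Relative viability is the nuclei count in treated wells divided by the count in vehicle wells, and each value is the median of duplicate plates.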

Everolimus + Bortezomib = compound: CO[C@H]1C[C@@H]2CC[C@@H](C)[C@@](O)(O2)C(=O)C(=O)N2CCCC[C@H]2C(=O)O[C@H]([C@H](C)C[C@@H]2CC[C@@H](OCCO)[C@H](OC)C2)CC(=O)[C@H](C)/C=C(\C)[C@@H](O)[C@@H](OC)C(=O)[C@H](C)C[C@H](C)/C=C/C=C/C=C/1C [Everolimus] + CC(C)C[C@H](NC(=O)[C@H](Cc1ccccc1)NC(=O)c1cnccn1)B(O)O [Bortezomib] (partner 0.002 µM)
Outline: as §1

Everolimus + Foretinib = compound: CO[C@H]1C[C@@H]2CC[C@@H](C)[C@@](O)(O2)C(=O)C(=O)N2CCCC[C@H]2C(=O)O[C@H]([C@H](C)C[C@@H]2CC[C@@H](OCCO)[C@H](OC)C2)CC(=O)[C@H](C)/C=C(\C)[C@@H](O)[C@@H](OC)C(=O)[C@H](C)C[C@H](C)/C=C/C=C/C=C/1C [Everolimus] + COc1cc2c(Oc3ccc(NC(=O)C4(C(=O)Nc5ccc(F)cc5)CC4)cc3F)ccnc2cc1OCCCN1CCOCC1 [Foretinib] (partner 0.25 µM)
Outline: as §1

Everolimus + Pictilisib = compound: CO[C@H]1C[C@@H]2CC[C@@H](C)[C@@](O)(O2)C(=O)C(=O)N2CCCC[C@H]2C(=O)O[C@H]([C@H](C)C[C@@H]2CC[C@@H](OCCO)[C@H](OC)C2)CC(=O)[C@H](C)/C=C(\C)[C@@H](O)[C@@H](OC)C(=O)[C@H](C)C[C@H](C)/C=C/C=C/C=C/1C [Everolimus] + CS(=O)(=O)N1CCN(Cc2cc3nc(-c4cccc5[nH]ncc45)nc(N4CCOCC4)c3s2)CC1 [Pictilisib] (partner 1 µM)
Outline: as §1

Row | Cell Line | relative viability (Everolimus + Palbociclib; first compound 0.01 µM) | relative viability (Everolimus + Palbociclib; first compound 0.03162 µM) | relative viability (Everolimus + Palbociclib; first compound 0.1 µM) | relative viability (Everolimus + Palbociclib; first compound 0.3162 µM) | relative viability (Everolimus + Palbociclib; first compound 1 µM) | relative viability (Everolimus + Bortezomib; first compound 0.01 µM) | relative viability (Everolimus + Bortezomib; first compound 0.03162 µM) | relative viability (Everolimus + Bortezomib; first compound 0.1 µM) | relative viability (Everolimus + Bortezomib; first compound 0.3162 µM) | relative viability (Everolimus + Bortezomib; first compound 1 µM) | relative viability (Everolimus + Foretinib; first compound 0.01 µM) | relative viability (Everolimus + Foretinib; first compound 0.03162 µM) | relative viability (Everolimus + Foretinib; first compound 0.1 µM) | relative viability (Everolimus + Foretinib; first compound 0.3162 µM) | relative viability (Everolimus + Foretinib; first compound 1 µM) | relative viability (Everolimus + Pictilisib; first compound 0.01 µM) | relative viability (Everolimus + Pictilisib; first compound 0.03162 µM) | relative viability (Everolimus + Pictilisib; first compound 0.1 µM) | relative viability (Everolimus + Pictilisib; first compound 0.3162 µM) | relative viability (Everolimus + Pictilisib; first compound 1 µM)
1 | NCI-H1975 | 0.481 | 0.398 | 0.524 | 0.454 | 0.358 | 0.335 | 0.357 | 0.317 | 0.372 | 0.313 | 0.765 | 0.67 | 0.714 | 0.748 | 0.579 | 0.223 | 0.242 | 0.194 | 0.211 | 0.199
2 | NCI-H1993 | 0.495 | 0.436 | 0.489 | 0.493 | 0.408 | 0.571 | 0.521 | 0.598 | 0.567 | 0.64 | 0.554 | 0.592 | 0.667 | 0.628 | 0.627 | 0.793 | 0.739 | 0.715 | 0.786 | 0.86
3 | NCI-H2009 | 0.105 | 0.109 | 0.103 | 0.127 | 0.108 | 0.739 | 0.863 | 0.484 | 0.864 | 0.812 | 0.961 | 1.04 | 0.826 | 1.04 | 0.936 | 0.565 | 0.591 | 0.394 | 0.673 | 0.504
4 | NCI-H2023 | 0.176 | 0.139 | 0.151 | 0.129 | 0.129 | 0.667 | 0.527 | 0.534 | 0.615 | 0.335 | 0.503 | 0.404 | 0.424 | 0.358 | 0.376 | 0.164 | 0.144 | 0.135 | 0.174 | 0.111
5 | NCI-H2085 | 0.413 | 0.362 | 0.347 | 0.335 | 0.284 | 0.956 | 0.827 | 0.726 | 0.805 | 0.711 | 0.812 | 0.584 | 0.617 | 0.777 | 0.695 | 0.346 | 0.358 | 0.368 | 0.348 | 0.377
6 | NCI-H2087 | 0.235 | 0.195 | 0.163 | 0.217 | 0.245 | 0.699 | 0.957 | 0.625 | 0.75 | 0.837 | 0.704 | 0.662 | 0.739 | 0.875 | 0.713 | 0.502 | 0.595 | 0.48 | 0.722 | 0.591
7 | NCI-H2126 | 0.384 | 0.314 | 0.325 | 0.338 | 0.345 | 0.736 | 0.668 | 0.66 | 0.714 | 0.738 | 0.97 | 0.925 | 0.892 | 0.772 | 0.73 | 0.373 | 0.34 | 0.359 | 0.392 | 0.409
8 | NCI-H2228 | 0.597 | 0.403 | 0.337 | 0.408 | 0.339 | 0.705 | 0.7 | 0.645 | 0.515 | 0.614 | 0.603 | 0.586 | 0.575 | 0.413 | 0.556 | 0.28 | 0.206 | 0.209 | 0.289 | 0.243
